{
  "source": "ChEMBL document CHEMBL5042506",
  "about": "“Discovery of Orally Available Retinoic Acid Receptor-Related Orphan Receptor γ-t/Dihydroorotate Dehydrogenase Dual Inhibitors for the Treatment of Refractory Inflammatory Bowel Disease” (J Med Chem, 2022)",
  "assay_type_in_all_cases": "ADME, organism-based",
  "key": {"[1]": {"assay": "Clearance in ICR mouse at 1 mg/kg, iv measured over 24 hrs by LC-MS/MS analysis", "conditions": "in vivo"}, "[2]": {"assay": "AUC (0 to last) in ICR mouse at 5 mg/kg, po measured over 24 hrs by LC-MS/MS analysis", "parameters": "route oral, dose 5 mg/kg, time >24", "conditions": "in vivo"}, "[3]": {"assay": "Cmax in ICR mouse at 5 mg/kg, po measured over 24 hrs by LC-MS/MS analysis", "parameters": "route oral, dose 5 mg/kg, time >24", "conditions": "in vivo"}, "[4]": {"assay": "Volume of distribution at steady state in ICR mouse at 1 mg/kg, iv measured over 24 hrs by LC-MS/MS analysis", "conditions": "in vivo, read-out: Vdss"}, "[5]": {"assay": "Oral bioavailability in ICR mouse at 5 mg/kg measured over 24 hrs by LC-MS/MS analysis", "conditions": "in vivo"}, "[6]": {"assay": "AUC (0 to last) in ICR mouse at 1 mg/kg, iv measured over 24 hrs by LC-MS/MS analysis", "parameters": "route intravenous, dose 1 mg/kg, time >24", "conditions": "in vivo"}, "[7]": {"assay": "Cmax in ICR mouse at 1 mg/kg, iv measured over 24 hrs by LC-MS/MS analysis", "parameters": "route intravenous, dose 1 mg/kg, time >24", "conditions": "in vivo"}},
  "data": [
    {"smiles": "Cc1c(Nc2nc3c(s2)CCCC3O)cc(Cl)cc1OC1CCN(C(=O)CC(C(F)(F)F)C(F)(F)F)CC1", "note": "(racemic)", "values": [
      {"measurement": "clearance", "setting": "[1]", "value": 26.6, "unit": "mL/min/kg"},
      {"measurement": "AUC(0-t) at 24 h", "setting": "[2]", "value": 599, "unit": "ng·h/mL"},
      {"measurement": "Cmax", "setting": "[3]", "value": 213, "unit": "ng/mL"},
      {"measurement": "Vd", "setting": "[4]", "value": 2.95, "unit": "L/kg"},
      {"measurement": "bioavailability", "setting": "[5]", "value": 18.9, "unit": "%"},
      {"measurement": "AUC(0-t) at 24 h", "setting": "[6]", "value": 634, "unit": "ng·h/mL"},
      {"measurement": "Cmax", "setting": "[7]", "value": 590, "unit": "ng/mL"}
    ]}
  ]
}
